Source: the supplement of paper PMC10307832

Assays:
Test in all cases: relative viability (nuclei count vs DMSO), 5 days (fraction); higher = more cells survive
Daporinad + Olaparib = compound: O=C(/C=C/c1cccnc1)NCCCCC1CCN(C(=O)c2ccccc2)CC1 [Daporinad] + O=C(c1cc(Cc2n[nH]c(=O)c3ccccc23)ccc1F)N1CCN(C(=O)C2CC2)CC1 [Olaparib] (partner 8 µM)
Summary of the method: (§1)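 The day after seeding in 1536-well plates, lung cancer cell lines were treated by pin tool with a single drug, or with a fixed anchor-drug dose together with five library-drug doses (not always all listed) in √10 steps. After 5 days, a combined fix-and-stain solution (final 0.05% Triton X-100, 1% formaldehyde, 1 ug/ml Hoechst) was added. Nuclei counted on 4× images gave relative viability as treated counts over vehicle counts, reported as the median of duplicate plates.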

Daporinad + Alpelisib = compound: O=C(/C=C/c1cccnc1)NCCCCC1CCN(C(=O)c2ccccc2)CC1 [Daporinad] + Cc1nc(NC(=O)N2CCC[C@H]2C(N)=O)sc1-c1ccnc(C(C)(C)C(F)(F)F)c1 [Alpelisib] (partner 2 µM)
Summary of the method: as §1

R406 + Lapatinib = compound: COc1cc(Nc2ncc(F)c(Nc3ccc4c(n3)NC(=O)C(C)(C)O4)n2)cc(OC)c1OC [R406] + CS(=O)(=O)CCNCc1ccc(-c2ccc3ncnc(Nc4ccc(OCc5cccc(F)c5)c(Cl)c4)c3c2)o1 [Lapatinib] (partner 2 µM)
Summary of the method: as §1

Daporinad + Tozasertib = compound: O=C(/C=C/c1cccnc1)NCCCCC1CCN(C(=O)c2ccccc2)CC1 [Daporinad] + Cc1cc(Nc2cc(N3CCN(C)CC3)nc(Sc3ccc(NC(=O)C4CC4)cc3)n2)n[nH]1 [Tozasertib] (partner 0.1 µM)
Summary of the method: as §1

Cell Line	relative viability (Daporinad + Olaparib; first compound 0.0005 µM)	relative viability (Daporinad + Olaparib; first compound 0.001581 µM)	relative viability (Daporinad + Olaparib; first compound 0.005 µM)	relative viability (Daporinad + Olaparib; first compound 0.01581 µM)	relative viability (Daporinad + Alpelisib; first compound 0.0005 µM)	relative viability (Daporinad + Alpelisib; first compound 0.001581 µM)	relative viability (Daporinad + Alpelisib; first compound 0.005 µM)	relative viability (Daporinad + Alpelisib; first compound 0.01581 µM)	relative viability (R406 + Lapatinib; first compound 0.08 µM)	relative viability (R406 + Lapatinib; first compound 0.253 µM)	relative viability (R406 + Lapatinib; first compound 0.8 µM)	relative viability (R406 + Lapatinib; first compound 2.53 µM)	relative viability (R406 + Lapatinib; first compound 8 µM)	relative viability (Daporinad + Tozasertib; first compound 0.0005 µM)	relative viability (Daporinad + Tozasertib; first compound 0.001581 µM)	relative viability (Daporinad + Tozasertib; first compound 0.005 µM)	relative viability (Daporinad + Tozasertib; first compound 0.01581 µM)
NCI-H1944	0.407	0.393	0.42	0.386	0.892	0.907	0.822	0.844	0.756	0.862	0.855	0.559	0.614	0.273	0.252	0.261	0.286
NCI-H1975	0.818	0.764	0.728	0.611	0.69	0.602	0.755	0.678	0.779	1.01	1.14	0.221	0.169	0.789	0.742	0.661	0.692
NCI-H1993	0.899	1.02	0.948	1.05	0.696	0.67	0.685	0.688	0.882	0.964	0.829	0.43	0.646	0.62	0.576	0.633	0.656
NCI-H2009	0.596	0.58	0.268	0.219	1.17	1.15	1.21	1.07	0.93	1.19	1.22	0.0976	0.261	0.76	0.706	0.724	0.555
NCI-H2023	0.51	0.497	0.414	0.277	0.656	0.636	0.689	0.651	0.968	0.976	1.05	0.0633	0.189	0.438	0.334	0.503	0.371
NCI-H2085	0.673		0.629	0.629	0.952	1.01	1.14	1.07	0.783	0.851	0.894	0.52	0.591	0.805	0.846	0.977	0.831
NCI-H2087	0.69	0.575	0.205	0.236	1.07	1.36	1.14	0.928	0.826	1.26	1.36	0.254	0.966	0.262	0.229	0.339	0.221
NCI-H2126	0.945	0.953	0.883	0.863	0.734	0.758	0.777	0.813	0.763	0.798	0.801	0.772	0.737	0.919	0.888	0.875	0.93
NCI-H2170	0.56	0.57	0.609	0.337	0.811	0.825	0.795	0.839	0.253	0.25	0.247	0.272	0.258	0.694	0.742	0.668	0.849
NCI-H2228	0.459	0.715	0.708	0.584	0.744	0.87	0.702	0.898	1.13	1.27	1.5	0.13	0.131	0.264	0.201	0.322	0.294
NCI-H2347	0.543	0.604	0.571	0.416	1.11	1.22	1.02	1.08	1.01	0.968	0.958	0.905	0.801	0.597	0.636	0.504	0.596
NCI-H2405	0.848	0.841	0.639	0.407	0.918	0.939	0.928	0.466	0.98	1.14	1.13	0.269	0.234	0.82	0.783	0.954	0.888
NCI-H3122	0.564	0.565	0.501	0.421	0.659	0.964	0.78	0.708	1.01	1.06	0.981	0.969	0.934	0.376	0.403	0.421	0.405
PC-3 [JPC-3]	1.18	1.08	1	1.09	1.03	1.03	1.15	1.04	0.457	0.501	0.503	0.406	0.418	0.864	0.896	0.938	0.952
PC-14	0.242	0.194	0.168	0.087	0.985	0.97	0.913	0.897	0.302	0.442	0.382	0.3	0.294	0.688	0.633	0.606	0.709
RERF-LC-KJ	0.867	0.896	0.82	0.757	0.811	0.893	0.88	0.98	0.682	0.876	1.01	0.761	0.794	0.559	0.45	0.562	0.517
SK-LU-1	0.426	0.548	0.394	0.299	0.933	1.22	1.47	1.06	0.875	0.93	1.09	0.491	0.303	0.316	0.289	0.281	0.35
SK-MES-1	0.603	0.636	0.423	0.323	0.841	0.894	0.947	1.03	0.416	0.477	0.5	0.449	0.295	0.85	0.948	1.08	0.865
SW 1573	0.367	0.312	0.323	0.274	0.615	0.788	0.938	0.69	1.13	1.22	1.14	1.27	0.825	0.185	0.183	0.166	0.178
